Molecules are shown by their SMILES.

Data set [1] relates to ROSA KIT WT line (without KIT gene mutation). Put plainly: cells. To be noted: 48 h, read-out: inhibited the cell growth by.
Description: (§1) Used in the research were four mastocyte cell lines: • HMC-1.1 containing the pV560G KIT gene mutation; • HMC-1.2 containing the pG560V and pD816V KIT gene mutations, • ROSA KIT D816V containing the pD816V KIT mutation; • ROSA KIT WT - line containing no KIT mutation [21-23].
(§2) The culture was grown in a cell incubator at the temperature of 37 °C and at 5% CO2 content. […] Used to grow the culture was Iscove's Modified Dulbecco's Medium (Merck Millipore) added with 50 mL of Foetal Bovine Serum (ATCC), and 5 mL of antibiotics (PEN./STREP. 100x, Merck Millipore), while the medium used for the ROSA KIT WT line was additionally supplemented with bone marrow stem cell growth factor rhSCF (R&D Systems, Minneapolis, USA) in the final concentration of 80 ng/ml.
(§3) The cells were grown for 48 hours on a 96-well plate at the concentrations 5 ×10^4 cells per well for the HMC 1.1. and HMC 1.2 lines, respectively, and at the concentration of 7.5 ×10^4 cells per well for the ROSA KIT D816V and ROSA KIT WT lines.
(§4) Then, the working 2-ME solution was diluted in 100 µL of DMSO so as to obtain the final solution concentrations of 1, 5, and 10 in 100 µL of DMSO, respectively.
(§5) The control were cells treated with the corresponding amounts of DMSO with no 2-ME added.
(§6) Following 48 hours into incubation, each well was added 50 µL of the XTT solution (Roche Diagnostics GmbH, Mannheim, Germany) prepared in accordance with the manufacturer's instructions. After 4 hours of cell incubation with XTT the level of absorbance was read using the Cytation 3 Imaging Reader (BioTek, USA) at the wavelength of 560 nm.
Data set [2] has as its system HMC 1.1 line (containing the p.V560G mutation). Put plainly: cells. To be noted: Homo sapiens, 48 h.
Description: as §1
(§7) The culture was grown in a cell incubator at the temperature of 37 °C and at 5% CO2 content, in sterile conditions in a chamber with laminar flow of sterile air. Used was Iscove's Modified Dulbecco's Medium (Merck Millipore) supplemented with 1.2 mM of α-thioglycerol, 50 mL of Foetal Bovine Serum (ATCC), and 5 mL of antibiotics (PEN./STREP. 100x, Merck Millipore)
as §3, §4, §5, §6
For data set [3], the system named is ROSA KIT WT line (without KIT gene mutation).
Description: as §1, §2, §3, §4, §5, §6
Data set [4] concerns HMC 1.1 line (containing the p.V560G mutation).
Description: as §1, §7, §3, §4, §5, §6

With `COc1cc2c(cc1O)CC[C@@H]1[C@@H]2CC[C@]2(C)[C@@H](O)CC[C@@H]12` [2-ME, 2-methoxyestradiol], in data set [1], the inhibition at 1 µM came out at 5%, the inhibition at 5 µM was 12% and the inhibition at 10 µM came out at 14%. Besides, in data set [2] (read-out: cell viability, HMC 1.1 line, 5 µM, 48 hours, remaining viability vs DMSO control), the viability (in general, the share of living cells, or the viability signal relative to a control) at 5 µM came to 63%. The viability at 10 µM in data set [2] (read-out: cell viability, HMC 1.1 line, 10 µM, 48 hours, remaining viability vs DMSO control) amounted to 67%. Further, the inhibition at 1 µM in data set [2] (read-out: reduced proliferation of cells by) came to 29%. The viability at 1 µM in data set [2] (read-out: viability of the cells, HMC 1.1 line, 1 µM, 48 hours, remaining viability vs DMSO control) was 71%. For the same compound, the “cytotoxicity to regular MCs” value in data set [3] is recorded as “did not demonstrate any such activity”. Further, the “cytotoxicity to neoplastic MCs” value in data set [4] is given as “selectively cytotoxic”.

The values are drawn from patent EP4436582B1, “2-METHOXYESTRADIOL FOR USE IN THE TREATMENT OF MASTOCYTOSIS” (Gdanski Uniwersytet Medyczny, priority 2021, dated 2023).
